The term solubility denotes how much of the substance goes into solution per volume. In general, IC50 refers to the midpoint of a concentration-inhibition curve.

Changes are numbered by the printed parent chain. Converted amounts (≈) assume the structure as drawn.

Data set [1] relates to B/KR(G810C) CDX tumors. Nature of the data set: In vivo activity on B/KR(G810C) CDX tumors in mice. Conditions: daily oral gavage. The procedure:
Mice bearing B/KR(G810C) CDX tumors were treated with the test compounds at the indicated doses by daily oral gavage. Tumor dimensions were measured with a caliper, and tumor sizes were estimated using the Formula: tumor size=(Length×width×width)/2. The data shown are the mean±sd.
BaF3/KR(G810C) cells were tested free of 20 mouse pathogens (IDEXX, Columbia, MO) and mycoplasma. Cells (1×10^7 cells/0.1 ml/each) were inoculated subcutaneously into the right flank of approximately 5-week old female SHO mice (Charles River, Wilmington, MA). After tumor formation, mice (6 mice/group) were treated with vehicle or test compounds at the indicated doses by oral gavage once a day. Tumor size and animal body weight were measured as described. Statistical analysis was performed using the unpaired Mann-Whitney test.

A short description of data set [2]: Solubility at pH 6.8. Format: physicochemical.
The target in data set [3] is T1, KIF5B-RET G810A (Homo sapiens, UniProt P07949, G810A).
T1 construct: KIF5B (fusion partner); expressed in transfected cells; host or cells: BaF3; the other entry of the earlier key: KIF5B (P33176, Kinesin-1 heavy chain)
T1 sequence (P07949 713-1063 G810A limits assumed): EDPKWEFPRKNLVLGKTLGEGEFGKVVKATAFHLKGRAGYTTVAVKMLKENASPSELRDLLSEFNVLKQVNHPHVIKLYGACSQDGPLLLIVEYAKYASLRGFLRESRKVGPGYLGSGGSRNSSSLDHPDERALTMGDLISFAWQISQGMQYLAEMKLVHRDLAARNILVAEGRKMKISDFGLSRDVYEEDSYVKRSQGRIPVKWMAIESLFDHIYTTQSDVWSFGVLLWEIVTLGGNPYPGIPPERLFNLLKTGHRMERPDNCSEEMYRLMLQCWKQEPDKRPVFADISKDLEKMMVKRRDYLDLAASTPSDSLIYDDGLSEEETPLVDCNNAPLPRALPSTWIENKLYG
Nature of the data set: Cell viability assay (CellTiter-Glo) in BaF3 cells expressing KIF5B-RET G810A. Format: cell-based. Particulars: B/KR mutant cell line G810A; read-out: IC50 of RET mutants, G810A. From the text:
(§1) KIF5B-RET G810D and G810V mutations were generated by PCR-based mutagenesis with primers containing the desired mutations. […] Drug screening and ICso data of BaF3/KR and mutation cells were from 2 or more experiments performed in 3 technical replicates.
(In general: ATP-based viability assays read luminescence as a measure of living cells.)

The target in data set [4] is T2, KIF5B-RET G810V (Homo sapiens, UniProt P07949, G810V).
T2 construct: KIF5B (fusion partner); expressed in transfected cells; host or cells: BaF3 (lentiviral vector); the other entry of the earlier key: KIF5B (P33176, Kinesin-1 heavy chain)
T2 sequence (P07949 713-1063 G810V limits assumed): T1 sequence (P07949 713-1063 G810A limits assumed) with A98V
Nature of the data set: Cell viability assay (CellTiter-Glo) in BaF3 cells expressing KIF5B-RET G810V. Type of data set: cell-based. Particulars: B/KR mutant cell line G810V; read-out: IC50 of RET mutants, G810V.
Source text: as §1

Data set [5] has as its target hERG (Homo sapiens, UniProt Q12809). Nature of the data set: hERG inhibition. Type of data set: biochemical. A general note: The hERG channel carries a current that helps repolarise heart muscle cells.
Data set [6] concerns the target T3, KIF5B-RET WT (Homo sapiens, UniProt P07949).
T3 construct: KIF5B (fusion partner); expressed in transfected cells; host or cells: BaF3; the other entry of the earlier key: KIF5B (P33176, Kinesin-1 heavy chain)
T3 sequence (P07949 with tags, fused parts or gaps): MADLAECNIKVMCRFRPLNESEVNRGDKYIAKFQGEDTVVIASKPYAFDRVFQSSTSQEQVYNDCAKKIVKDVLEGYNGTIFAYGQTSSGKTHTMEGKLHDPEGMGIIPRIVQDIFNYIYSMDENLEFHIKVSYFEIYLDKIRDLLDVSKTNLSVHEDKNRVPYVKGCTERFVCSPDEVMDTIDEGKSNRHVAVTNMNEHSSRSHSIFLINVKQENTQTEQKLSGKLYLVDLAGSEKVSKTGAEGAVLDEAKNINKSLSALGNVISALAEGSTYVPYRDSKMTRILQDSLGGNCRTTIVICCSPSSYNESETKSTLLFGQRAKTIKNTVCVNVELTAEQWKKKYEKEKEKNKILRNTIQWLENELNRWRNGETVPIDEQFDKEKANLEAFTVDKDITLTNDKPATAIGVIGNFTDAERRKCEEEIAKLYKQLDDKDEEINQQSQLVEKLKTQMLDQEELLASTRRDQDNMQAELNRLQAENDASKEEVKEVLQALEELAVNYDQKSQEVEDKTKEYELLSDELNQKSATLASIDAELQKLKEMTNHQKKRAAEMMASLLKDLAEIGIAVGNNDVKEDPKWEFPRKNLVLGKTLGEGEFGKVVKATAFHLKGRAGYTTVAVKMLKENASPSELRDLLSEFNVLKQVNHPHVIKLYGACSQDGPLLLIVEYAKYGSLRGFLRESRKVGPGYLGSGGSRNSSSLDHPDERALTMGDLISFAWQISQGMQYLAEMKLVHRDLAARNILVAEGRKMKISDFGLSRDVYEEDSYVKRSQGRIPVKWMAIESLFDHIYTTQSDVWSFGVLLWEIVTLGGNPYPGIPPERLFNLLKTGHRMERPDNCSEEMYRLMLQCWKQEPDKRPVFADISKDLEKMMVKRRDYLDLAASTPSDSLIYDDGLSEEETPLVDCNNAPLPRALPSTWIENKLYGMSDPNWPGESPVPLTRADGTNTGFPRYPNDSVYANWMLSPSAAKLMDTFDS
Nature of the data set: Cell viability assay (CellTiter-Glo) in BaF3 cells expressing KIF5B-RET (B/KR), WT. Format: cell-based. Particulars: B/KR cell line, read-out: IC50 of RET mutants, WT.
Source text: as §1

Data set [7] concerns the target T4, KIF5B-RET G810S (Homo sapiens, UniProt P07949, G810S).
T4 construct: KIF5B (fusion partner); expressed in transfected cells; host or cells: BaF3; the other entry of the earlier key: KIF5B (P33176, Kinesin-1 heavy chain)
T4 sequence (P07949 713-1063 G810S limits assumed): T1 sequence (P07949 713-1063 G810A limits assumed) with A98S
Nature of the data set: Cell viability assay (CellTiter-Glo) in BaF3 cells expressing KIF5B-RET G810S. Conditions: B/KR mutant cell line G810S; read-out: IC50 of RET mutants, G810S. Type of data set: cell-based.
Source text: as §1

For data set [8], the target named is T5, KIF5B-RET V804M (Homo sapiens, UniProt P07949, V804M).
T5 construct: KIF5B (fusion partner); expressed in transfected cells; host or cells: BaF3; the other entry of the earlier key: KIF5B (P33176, Kinesin-1 heavy chain)
T5 sequence (P07949 713-1063 V804M limits assumed): T1 sequence (P07949 713-1063 G810A limits assumed) with V92M, A98G
Nature of the data set: Cell viability assay (CellTiter-Glo) in BaF3 cells expressing KIF5B-RET V804M. Format: cell-based. Particulars: B/KR mutant cell line V804M; read-out: IC50 of RET mutants, V804M.
Source text: as §1

A short description of data set [9]: Protein binding (human serum). Type of data set: in vitro ADME.
Data set [10] concerns the target T6, KIF5B-RET G810C (Homo sapiens, UniProt P07949, G810C).
T6 construct: KIF5B (fusion partner); expressed in transfected cells; host or cells: BaF3; the other entry of the earlier key: KIF5B (P33176, Kinesin-1 heavy chain)
T6 sequence (P07949 713-1063 G810C limits assumed): T1 sequence (P07949 713-1063 G810A limits assumed) with A98C
Nature of the data set: Cell viability assay (CellTiter-Glo) in BaF3 cells expressing KIF5B-RET G810C. Particulars: B/KR mutant cell line G810C; read-out: IC50 of RET mutants, G810C. Type of data set: cell-based.
Source text: as §1

The target of data set [11] is T7, KIF5B-RET G810D (Homo sapiens, UniProt P07949, G810D).
T7 construct: KIF5B (fusion partner); expressed in transfected cells; host or cells: BaF3 (lentiviral vector); the other entry of the earlier key: KIF5B (P33176, Kinesin-1 heavy chain)
T7 sequence (P07949 713-1063 G810D limits assumed): T1 sequence (P07949 713-1063 G810A limits assumed) with A98D
Nature of the data set: Cell viability assay (CellTiter-Glo) in BaF3 cells expressing KIF5B-RET G810D. Format: cell-based. Particulars: B/KR mutant cell line G810D; read-out: IC50 of RET mutants, G810D.
Source text: as §1

The target in data set [12] is T8, KIF5B-RET G810R (Homo sapiens, UniProt P07949, G810R).
T8 construct: KIF5B (fusion partner); expressed in transfected cells; host or cells: BaF3; the other entry of the earlier key: KIF5B (P33176, Kinesin-1 heavy chain)
T8 sequence (P07949 713-1063 G810R limits assumed): T1 sequence (P07949 713-1063 G810A limits assumed) with A98R
Nature of the data set: Cell viability assay (CellTiter-Glo) in BaF3 cells expressing KIF5B-RET G810R. Type of data set: cell-based. Particulars: B/KR mutant cell line G810R; read-out: IC50 of RET mutants, G810R.
Source text: as §1

Sequence of hERG (Q12809 whole entry): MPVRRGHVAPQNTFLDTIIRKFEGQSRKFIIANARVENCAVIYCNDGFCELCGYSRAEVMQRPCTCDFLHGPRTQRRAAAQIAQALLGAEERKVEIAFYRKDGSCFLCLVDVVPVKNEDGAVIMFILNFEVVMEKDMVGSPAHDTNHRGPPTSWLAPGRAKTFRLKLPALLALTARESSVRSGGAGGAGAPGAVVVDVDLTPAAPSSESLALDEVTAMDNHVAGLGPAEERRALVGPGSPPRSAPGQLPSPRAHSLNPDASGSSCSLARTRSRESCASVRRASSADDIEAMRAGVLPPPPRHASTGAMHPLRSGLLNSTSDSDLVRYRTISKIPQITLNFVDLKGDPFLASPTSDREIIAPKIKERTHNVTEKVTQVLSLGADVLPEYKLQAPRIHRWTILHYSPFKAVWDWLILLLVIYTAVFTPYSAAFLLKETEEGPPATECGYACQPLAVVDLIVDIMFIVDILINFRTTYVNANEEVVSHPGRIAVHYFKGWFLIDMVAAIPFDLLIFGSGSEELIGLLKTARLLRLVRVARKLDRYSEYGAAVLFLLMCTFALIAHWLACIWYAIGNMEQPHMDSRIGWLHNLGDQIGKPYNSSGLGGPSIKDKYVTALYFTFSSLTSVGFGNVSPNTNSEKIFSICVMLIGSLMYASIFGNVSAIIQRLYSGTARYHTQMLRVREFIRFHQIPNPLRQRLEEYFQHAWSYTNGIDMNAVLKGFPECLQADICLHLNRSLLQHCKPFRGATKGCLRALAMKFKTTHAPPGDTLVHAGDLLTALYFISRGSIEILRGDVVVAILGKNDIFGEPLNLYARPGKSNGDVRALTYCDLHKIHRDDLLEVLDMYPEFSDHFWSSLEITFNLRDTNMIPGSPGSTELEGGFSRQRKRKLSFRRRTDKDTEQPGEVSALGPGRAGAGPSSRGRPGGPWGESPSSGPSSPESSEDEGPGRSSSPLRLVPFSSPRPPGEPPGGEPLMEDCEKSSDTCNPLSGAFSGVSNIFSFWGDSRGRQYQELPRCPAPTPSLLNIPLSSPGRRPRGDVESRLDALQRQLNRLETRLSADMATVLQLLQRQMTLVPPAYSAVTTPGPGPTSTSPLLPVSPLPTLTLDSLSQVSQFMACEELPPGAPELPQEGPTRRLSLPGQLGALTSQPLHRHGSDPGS

In the case of `CN1CCN(Cc2ccc(NC(=O)c3cncc(C#Cc4cnc(N)nc4)c3)cc2C(F)(F)F)CC1` [Example 2, 5-((2-Aminopyrimidin-5-yl)ethynyl)-N-(4-((4-methylpiperazin-1-yl)methyl)-3-(trifluoromethyl)phenyl)nicotinamide], in data set [1] (25 mg/Kg), the “effect on B/KR(G810C) CDX tumors” value is on record as “tumor regression”. For the same molecule, the solubility in data set [2] worked out at 117 µM (≈ 58 µg/mL). Moreover, the IC50 was 3.89 ± 0.07 nM in data set [3]; 8.34 ± 0.36 nM in data set [4]; 23000 nM in [5]; 3.49 ± 0.16 nM in data set [6]; 8.02 ± 0.21 nM in data set [7]; 20.3 ± 1.09 nM in [8]. For the same molecule, the IC50 in data set [10] was found to be 12.2 ± 0.63 nM; in [11], 1.47 ± 0.05 nM; in data set [12] it was 46.8 ± 1.11 nM. In addition, in data set [9], the protein-bound stood at 94%.
Consider `CN1CCN(Cc2ccc(NC(=O)c3cncc(C#Cc4cnc(N)c5ncccc45)c3)cc2C(F)(F)F)CC1` [HSN608, reference compound], for which, in data set [1] (50 mg/Kg), the “effect on B/KR(G810C) CDX tumors” value is “tumor regression”. In data set [2], this molecule had a solubility of 0.07 µM (≈ 0.0382 µg/mL). Further, the protein-bound in data set [9] is given as 99%.
In the case of `CN1CCN(Cc2ccc(NC(=O)c3cncc(C#Cc4cnc5[nH]ncc5c4)c3)cc2C(F)(F)F)CC1` [Example 1, 5-((1H-Pyrazolo[3,4-b]pyridin-5-yl)ethynyl)-N-(4-((4-methylpiperazin-1-yl)methyl)-3-(trifluoromethyl)phenyl)nicotinamide], the IC50 in data set [3] was found to be 1.56 ± 0.07 nM; in data set [4], 4.1 ± 0.3 nM; in data set [6], 1.7 ± 0.08 nM; in data set [7], 7.76 ± 0.33 nM; in data set [8], 14.1 ± 0.54 nM; in data set [10], 11.4 ± 0.32 nM. Moreover, the IC50 in data set [11] was 5.21 ± 0.36 nM; in [12], 24.5 ± 0.79 nM.

For the origin of these results see patent US20260226039A1, “INHIBITORS OF SOLVENT FRONT MUTATED RET KINASE” (Purdue Research Foundation, priority 2023, published 2026).
